pIC50, pKi: −log10 of the molar value.
Experiments:
SYK kinase = target: T1, SYK kinase (Homo sapiens, UniProt P43405); assay: SYK Assay (OMNIA KINASE ASSAY, SOX peptide fluorescence); type: biochemical; conditions: apparent Ki calculated from the IC50 using the Cheng-Prusoff equation; 1 mM ATP, 30° C.; read-out: SYK Activities: Ki
T1 construct: purchased Invitrogen, Carlsbad
Summary of the method: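 Continuous Omnia assay: SYK phosphorylation of SOX-labelled Tyr 7 peptide (10 µM) with 1 mM ATP and 0.2 mM DTT at 30 °C. Fluorescence (ex 360/em 485 nm) read every 30 s for 30 min. Reaction velocity versus inhibitor concentration gives IC50, converted to apparent Ki by Cheng-Prusoff.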

LRRK2 = LRRK2 (Homo sapiens, UniProt Q5S007); assay: LRRK2-LRRK2 G2019S-Assay (LanthaScreen Eu Kinase Binding Assay); conditions: 5 nM LRRK2 or their mutants, 10 nM tracer 236, RT 1 h; read-out: LRRK2 Activities: IC50
LRRK2, sequence (Q5S007 970-2527 limits assumed): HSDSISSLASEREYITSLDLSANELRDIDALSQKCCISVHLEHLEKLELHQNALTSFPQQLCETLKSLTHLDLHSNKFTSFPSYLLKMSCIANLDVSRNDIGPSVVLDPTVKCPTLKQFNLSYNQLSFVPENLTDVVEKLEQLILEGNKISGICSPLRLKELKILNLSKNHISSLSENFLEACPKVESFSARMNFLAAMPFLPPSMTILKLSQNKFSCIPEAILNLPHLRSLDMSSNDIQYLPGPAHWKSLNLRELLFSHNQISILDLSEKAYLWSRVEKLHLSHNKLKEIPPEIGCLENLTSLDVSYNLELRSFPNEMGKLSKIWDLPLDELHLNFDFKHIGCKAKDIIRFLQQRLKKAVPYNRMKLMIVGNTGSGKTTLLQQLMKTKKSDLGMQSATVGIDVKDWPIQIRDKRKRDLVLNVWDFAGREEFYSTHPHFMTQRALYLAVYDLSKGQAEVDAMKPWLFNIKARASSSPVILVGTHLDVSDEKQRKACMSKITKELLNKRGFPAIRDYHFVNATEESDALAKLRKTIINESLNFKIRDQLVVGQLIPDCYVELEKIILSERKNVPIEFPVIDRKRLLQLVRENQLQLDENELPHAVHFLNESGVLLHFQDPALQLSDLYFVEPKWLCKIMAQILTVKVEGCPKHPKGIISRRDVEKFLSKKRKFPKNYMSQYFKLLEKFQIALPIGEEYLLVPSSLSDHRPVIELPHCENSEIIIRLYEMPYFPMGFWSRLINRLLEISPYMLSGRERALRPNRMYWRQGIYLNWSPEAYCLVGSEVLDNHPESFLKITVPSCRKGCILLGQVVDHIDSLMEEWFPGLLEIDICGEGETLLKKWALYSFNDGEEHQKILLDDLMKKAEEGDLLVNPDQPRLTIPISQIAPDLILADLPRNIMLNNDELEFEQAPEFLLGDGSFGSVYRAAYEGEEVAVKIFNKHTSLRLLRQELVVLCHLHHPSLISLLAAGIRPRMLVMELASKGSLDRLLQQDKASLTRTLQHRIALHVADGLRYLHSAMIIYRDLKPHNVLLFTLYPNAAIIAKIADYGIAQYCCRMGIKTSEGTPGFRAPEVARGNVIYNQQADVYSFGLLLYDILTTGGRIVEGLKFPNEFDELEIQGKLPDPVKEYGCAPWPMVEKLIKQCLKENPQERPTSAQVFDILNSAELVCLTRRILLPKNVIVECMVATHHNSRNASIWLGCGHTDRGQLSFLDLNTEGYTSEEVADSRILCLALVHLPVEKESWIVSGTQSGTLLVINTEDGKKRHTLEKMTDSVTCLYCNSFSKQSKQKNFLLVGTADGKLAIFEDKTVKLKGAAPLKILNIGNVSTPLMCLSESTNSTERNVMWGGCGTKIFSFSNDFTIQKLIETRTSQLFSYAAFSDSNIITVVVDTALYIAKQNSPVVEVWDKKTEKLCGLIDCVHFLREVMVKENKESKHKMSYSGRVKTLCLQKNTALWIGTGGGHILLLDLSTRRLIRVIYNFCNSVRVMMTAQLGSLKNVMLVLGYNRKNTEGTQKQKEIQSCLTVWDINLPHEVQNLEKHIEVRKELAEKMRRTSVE
Protocol: In the assay LanthaScreen™ Eu Kinase Binding Assay by Invitrogen Corporation (Carlsbad) the effect of invention of a compound on the phosphorylation is determined by measurement of fluorescence intensity emission ratio based on the binding and displacement of a proprietary, Alexa Fluor® 647-labeled, ATP-competitive kinase inhibitor scaffold (kinase tracer) to the kinase of interest. Binding of the tracer to the kinase is detected using a europium-labeled anti-tag antibody, which binds to the kinase of interest. Simultaneous binding of both the tracer and antibody to the kinase results in a high degree of FRET (fluorescence resonance energy transfer) from the europium (Eu) donor fluorophore to the Alexa Fluor® 647 acceptor fluorophore on the kinase tracer. Binding of an inhibitor to the kinase competes for binding with the tracer, resulting in a loss of FRET. The fluorescence intensity ratio is directly proportional to the amount of peptide phosphorylation.
To the wells of an 384 well small volume plate (Greiner, Frickenhausen) are added (i) the compound under test in 5% DMSO/distilled water (5 μl), (ii) 5 μl of the kinase antibody mixture resulting in a final concentration 5 nM LRRK2 or their mutants, 2 nM EU-Anti-GST antibody in 1× kinase buffer A. The reaction was started with addition of (iii) 5 μl resulting in a final concentration of 10 nM tracer 236. The assay plate was incubated at RT for 1 h and fluorescence intensitiy readings were collected using a TECAN M1000 at two wavelengthes of λex 340/λem 615 nm and λex 340/λm 665 nm with a delay time of 100 μs and an integration time of 200 μs after 60 minutes. The emission ratio was calculated by division of the acceptor/tracer emission ([…]) by the antibody/donor emission ([…]). The inhibitor concentration was plotted versus the emission ratio to determine the IC50 using XLFit 5.0 (IDBS, Guildford) to fit to a sigmoidal dose response curve with a variable slope.

Compound | pKi (SYK kinase) | pIC50 (LRRK2)
COc1cccc(-c2nc(Nc3ccc4c(c3)NCCO4)c3[nH]ncc3n2)c1 [Example #89, N-(5-(3-methoxyphenyl)-1H-pyrazolo[4,3-d]pyrimidin-7-yl)-3,4-dihydro-2H-benzo[b][1,4]oxazin-6-amine] | 7.00 to 8.00 | 7.00 to 8.00
CN1CCC(c2nc(Nc3ccc4c(c3)NCCO4)c3[nH]ncc3n2)CC1 [Example #93, N-(5-(1-methylpiperidin-4-yl)-1H-pyrazolo[4,3-d]pyrimidin-7-yl)-3,4-dihydro-2H-benzo[b][1,4]oxazin-6-amine] | 7.00 to 8.00 | 6.00 to 7.00
COc1ccc(Nc2nc(-c3nc4ccccc4s3)nc3cn[nH]c23)cc1OC [Example #96, 5-(benzo[d]thiazol-2-yl)-N-(3,4-dimethoxyphenyl)-1H-pyrazolo[4,3-d]pyrimidin-7-amine] | 7.00 to 8.00 | 6.00 to 7.00
COc1ccc(Nc2nc(-c3cccc(-c4cccnc4)c3)nc3cn[nH]c23)cc1OC [Example #101, N-(3,4-dimethoxyphenyl)-5-(3-(pyridin-3-yl)phenyl)-1H-pyrazolo[4,3-d]pyrimidin-7-amine] | 7.00 to 8.00 | 6.00 to 7.00
COc1ccccc1-c1nc(Nc2ccc(N3CCN(C)CC3)cc2)c2[nH]ncc2n1 [Example #108, 5-(2-methoxyphenyl)-N-(4-(4-methylpiperazin-1-yl)phenyl)-1H-pyrazolo[4,3-d]pyrimidin-7-amine] | 7.00 to 8.00 | 6.00 to 7.00
COc1ccc(Nc2nc(-c3ccccc3OC)nc3cn[nH]c23)cc1OC [Example #109, N-(3,4-dimethoxyphenyl)-5-(2-methoxyphenyl)-1H-pyrazolo[4,3-d]pyrimidin-7-amine] | 7.00 to 8.00 | 6.00 to 7.00
COc1ccccc1-c1nc(Nc2ccc3c(c2)NCCO3)c2[nH]ncc2n1 [Example #110, N-(5-(2-methoxyphenyl)-1H-pyrazolo[4,3-d]pyrimidin-7-yl)-3,4-dihydro-2H-benzo[b][1,4]oxazin-6-amine] | 7.00 to 8.00 | 6.00 to 7.00
COc1ccccc1-c1nc(Nc2ccc3cn[nH]c3c2)c2[nH]ncc2n1 [Example #111, N-(1H-indazol-6-yl)-5-(2-methoxyphenyl)-1H-pyrazolo[4,3-d]pyrimidin-7-amine] | 7.00 to 8.00 | 6.00 to 7.00
CCN1CCN(c2ccc(Nc3nc(-c4ccccc4)nc4cn[nH]c34)cc2)CC1 [Example #119, N-(4-(4-ethylpiperazin-1-yl)phenyl)-5-phenyl-1H-pyrazolo[4,3-d]pyrimidin-7-amine] | > 8.00 | 6.00 to 7.00
c1ccn2cc(-c3nc(Nc4ccc5[nH]ncc5c4)c4[nH]ncc4n3)nc2c1 [Example #126, 5-(imidazo[1,2-a]pyridin-2-yl)-N-(1H-indazol-5-yl)-1H-pyrazolo[4,3-d]pyrimidin-7-amine] | 7.00 to 8.00 | 6.00 to 7.00
O=C(c1ccc(Nc2nc(-c3cccs3)nc3cn[nH]c23)cc1)N1CCCC1 [Example #135, pyrrolidin-1-yl(4-((5-(thiophen-2-yl)-1H-pyrazolo[4,3-d]pyrimidin-7-yl)amino)phenyl)methanone] | 7.00 to 8.00 | > 8.00
c1csc(-c2nc(Nc3ccc(N4CCSCC4)cc3)c3[nH]ncc3n2)c1 [Example #136, N-(4-thiomorpholinophenyl)-5-(thiophen-2-yl)-1H-pyrazolo[4,3-d]pyrimidin-7-amine] | 7.00 to 8.00 | 7.00 to 8.00
O=S1(=O)CCN(c2ccc(Nc3nc(-c4cccs4)nc4cn[nH]c34)cc2)CC1 [Example #137, 4-(4-((5-(thiophen-2-yl)-1H-pyrazolo[4,3-d]pyrimidin-7-yl)amino)phenyl)thiomorpholine 1,1-dioxide] | > 8.00 | 7.00 to 8.00
CN1CCN(c2ccc(Nc3nc(-c4cnc[nH]4)nc4cn[nH]c34)cc2)CC1 [Example #140, 5-(1H-imidazol-5-yl)-N-(4-(4-methylpiperazin-1-yl)phenyl)-1H-pyrazolo[4,3-d]pyrimidin-7-amine] | 7.00 to 8.00 | 6.00 to 7.00
O=C(c1ccc(Nc2nc(-c3ccsc3)nc3cn[nH]c23)cc1)N1CCCC1 [Example #142, pyrrolidin-1-yl(4-((5-(thiophen-3-yl)-1H-pyrazolo[4,3-d]pyrimidin-7-yl)amino)phenyl)methanone] | 7.00 to 8.00 | 6.00 to 7.00
c1cc(-c2nc(Nc3ccc(N4CCSCC4)cc3)c3[nH]ncc3n2)cs1 [Example #145, N-(4-thiomorpholinophenyl)-5-(thiophen-3-yl)-1H-pyrazolo[4,3-d]pyrimidin-7-amine] | 7.00 to 8.00 | 7.00 to 8.00
O=C1COc2ccc(Nc3nc(-c4ccsc4)nc4cn[nH]c34)cc2N1 [Example #146, 6-((5-(thiophen-3-yl)-1H-pyrazolo[4,3-d]pyrimidin-7-yl)amino)-2H-benzo[b][1,4]oxazin-3(4H)-one] | 7.00 to 8.00 | 6.00 to 7.00
O=C(O)c1cccc(-c2nc(Nc3ccc(N4CCOCC4)cc3)c3[nH]ncc3n2)c1 [Example #156, 3-(7-((4-morpholinophenyl)amino)-1H-pyrazolo[4,3-d]pyrimidin-5-yl)benzoic acid] | 7.00 to 8.00 | 6.00 to 7.00
O=C(c1ccc(Nc2nc(-c3ccsc3)nc3cn[nH]c23)cc1)N1CCOCC1 [Example #157, morpholino(4-((5-(thiophen-3-yl)-1H-pyrazolo[4,3-d]pyrimidin-7-yl)amino)phenyl)methanone] | 7.00 to 8.00 | 6.00 to 7.00
O=C1CSc2ccc(Nc3nc(-c4ccsc4)nc4cn[nH]c34)cc2N1 [Example #158, 6-((5-(thiophen-3-yl)-1H-pyrazolo[4,3-d]pyrimidin-7-yl)amino)-2H-benzo[b][1,4]thiazin-3(4H)-one] | 7.00 to 8.00 | 7.00 to 8.00
COc1ccc(-c2nc(Nc3ccc4c(c3)NC(=O)CC4)c3[nH]ncc3n2)cc1 [Example #159, 7-((5-(4-methoxyphenyl)-1H-pyrazolo[4,3-d]pyrimidin-7-yl)amino)-3,4-dihydroquinolin-2(1H)-one] | 7.00 to 8.00 | 6.00 to 7.00
O=C1COc2ccc(Nc3nc(-c4cccs4)nc4cn[nH]c34)cc2N1 [Example #162, 6-((5-(thiophen-2-yl)-1H-pyrazolo[4,3-d]pyrimidin-7-yl)amino)-2H-benzo[b][1,4]oxazin-3(4H)-one] | > 8.00 | 6.00 to 7.00
COc1ccc(-c2nc(Nc3ccc4c(c3)NC(=O)CCC4)c3[nH]ncc3n2)cc1 [Example #164, 8-((5-(4-methoxyphenyl)-1H-pyrazolo[4,3-d]pyrimidin-7-yl)amino)-4,5-dihydro-1H-benzo[b]azepin-2(3H)-one] | > 8.00 | 7.00 to 8.00
CN1CCCc2ccc(Nc3nc(-c4cccs4)nc4cn[nH]c34)cc21 [Example #166, 1-methyl-N-(5-(thiophen-2-yl)-1H-pyrazolo[4,3-d]pyrimidin-7-yl)-1,2,3,4-tetrahydroquinolin-7-amine] | 7.00 to 8.00 | 7.00 to 8.00
COc1ccc(-c2nc(Nc3ccc(N4CCS(=O)(=O)CC4)cc3)c3[nH]ncc3n2)cc1 [Example #169, 4-(4-((5-(4-methoxyphenyl)-1H-pyrazolo[4,3-d]pyrimidin-7-yl)amino)phenyl)thiomorpholine 1,1-dioxide] | > 8.00 | 6.00 to 7.00
COc1ccc(-c2nc(Nc3ccc(N4CCN(C(C)=O)CC4)cc3)c3[nH]ncc3n2)cc1 [Example #170, 1-(4-(4-((5-(4-methoxyphenyl)-1H-pyrazolo[4,3-d]pyrimidin-7-yl)amino)phenyl)piperazin-1-yl)ethan-1-one] | > 8.00 | 6.00 to 7.00
